Experimental findings from ChEMBL document CHEMBL3817738, “Perspectives on the Two-Pore Domain Potassium Channel TREK-1 (TWIK-Related K(+) Channel 1). A Novel Therapeutic Target?” (J Med Chem, 2016) are described below.

Test [1] addresses T1, Potassium channel subfamily K member 10 (Homo sapiens, UniProt P57789).
T1 sequence (P57789 whole entry): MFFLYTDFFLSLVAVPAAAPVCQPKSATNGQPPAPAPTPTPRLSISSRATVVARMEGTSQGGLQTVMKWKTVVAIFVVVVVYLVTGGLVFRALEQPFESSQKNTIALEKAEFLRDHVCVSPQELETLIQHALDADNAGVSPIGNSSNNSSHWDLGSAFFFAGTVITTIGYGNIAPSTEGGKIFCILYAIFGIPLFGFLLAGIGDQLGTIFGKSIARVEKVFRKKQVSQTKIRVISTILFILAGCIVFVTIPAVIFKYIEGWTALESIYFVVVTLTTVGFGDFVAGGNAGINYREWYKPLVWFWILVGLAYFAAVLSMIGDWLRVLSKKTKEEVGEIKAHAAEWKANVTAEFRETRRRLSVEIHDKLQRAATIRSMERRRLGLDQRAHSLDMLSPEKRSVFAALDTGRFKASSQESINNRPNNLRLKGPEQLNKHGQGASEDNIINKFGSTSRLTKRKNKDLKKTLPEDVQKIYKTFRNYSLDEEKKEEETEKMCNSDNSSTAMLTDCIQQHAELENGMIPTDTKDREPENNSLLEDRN
Nature of the test: Inhibition of TREK2 (unknown origin) expressed in HEK293 cells assessed as reduction in channel currents. The test is classed as cell-based.

Test [2] has as its target T2, Potassium channel subfamily K member 2 (Homo sapiens, UniProt O95069).
T2 sequence (O95069 whole entry): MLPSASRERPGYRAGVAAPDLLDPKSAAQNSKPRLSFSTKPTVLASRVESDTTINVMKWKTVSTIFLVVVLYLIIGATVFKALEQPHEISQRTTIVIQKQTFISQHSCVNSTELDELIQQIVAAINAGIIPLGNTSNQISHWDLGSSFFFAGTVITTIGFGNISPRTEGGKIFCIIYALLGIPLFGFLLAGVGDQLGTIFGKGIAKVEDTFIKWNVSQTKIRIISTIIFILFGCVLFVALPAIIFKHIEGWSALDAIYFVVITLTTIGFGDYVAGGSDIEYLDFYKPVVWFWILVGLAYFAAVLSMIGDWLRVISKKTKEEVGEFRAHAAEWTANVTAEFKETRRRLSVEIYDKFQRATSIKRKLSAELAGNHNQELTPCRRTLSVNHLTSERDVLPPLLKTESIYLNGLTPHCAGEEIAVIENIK
Nature of the test: Inhibition of human TREK1 expressed in oocytes assessed as reversible current depression. The class given is cell-based.

The target of test [3] is T1, Potassium channel subfamily K member 10. Nature of the test: Inhibition of TREK2 (unknown origin) expressed in oocytes assessed as reduction in channel currents. The class given is cell-based.
Test [4] concerns the target T2, Potassium channel subfamily K member 2. Nature of the test: Inhibition of human TREK1 expressed in HEK293 cells assessed as reduction in channel currents. The class given is cell-based.
Test [5] addresses T3, Potassium channel subfamily K member 2 (Rattus norvegicus) (UniProt Q920B6).
T3 sequence (whole entry): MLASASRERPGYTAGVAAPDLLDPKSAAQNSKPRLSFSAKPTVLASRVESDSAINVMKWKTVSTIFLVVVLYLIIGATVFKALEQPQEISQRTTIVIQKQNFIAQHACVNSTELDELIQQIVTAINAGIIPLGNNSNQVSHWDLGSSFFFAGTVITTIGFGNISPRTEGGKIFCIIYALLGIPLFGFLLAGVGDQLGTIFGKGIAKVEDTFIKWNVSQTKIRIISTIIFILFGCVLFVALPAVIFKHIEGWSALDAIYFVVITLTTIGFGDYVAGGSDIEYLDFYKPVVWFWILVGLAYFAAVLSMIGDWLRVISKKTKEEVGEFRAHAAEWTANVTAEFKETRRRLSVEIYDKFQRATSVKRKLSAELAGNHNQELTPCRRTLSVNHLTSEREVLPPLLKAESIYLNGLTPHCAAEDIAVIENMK
Particulars: CHO, 10 uM.
Description: Inhibition of rat TREK1 expressed in CHO cells assessed as reversible current depression at 10 uM

For test [6], the target named is T4, Potassium channel subfamily K member 2 (Rattus norvegicus, UniProt Q920B6).
T4 sequence (Q920B6 whole entry): T3 sequence (whole entry)
Nature of the test: Inhibition of rat TREK1 expressed in CHO cells assessed as reversible current depression. The test is classed as cell-based.

For test [7], the target named is T5, Potassium channel subfamily K member 2 (Homo sapiens) (UniProt O95069).
T5 sequence (whole entry): T2 sequence (O95069 whole entry)
Nature of the test: Inhibition of human TREK1 expressed in HEK293 cells assessed as reversible current depression at 10 uM. The test is classed as cell-based.

For test [8], the target named is T2, Potassium channel subfamily K member 2. Nature of the test: Inhibition of human TREK1 expressed in HEK293 cells assessed as reversible current depression. The test is classed as cell-based.
The target in test [9] is T6, Potassium channel subfamily K member 4 (Homo sapiens) (UniProt Q9NYG8).
T6 sequence (whole entry): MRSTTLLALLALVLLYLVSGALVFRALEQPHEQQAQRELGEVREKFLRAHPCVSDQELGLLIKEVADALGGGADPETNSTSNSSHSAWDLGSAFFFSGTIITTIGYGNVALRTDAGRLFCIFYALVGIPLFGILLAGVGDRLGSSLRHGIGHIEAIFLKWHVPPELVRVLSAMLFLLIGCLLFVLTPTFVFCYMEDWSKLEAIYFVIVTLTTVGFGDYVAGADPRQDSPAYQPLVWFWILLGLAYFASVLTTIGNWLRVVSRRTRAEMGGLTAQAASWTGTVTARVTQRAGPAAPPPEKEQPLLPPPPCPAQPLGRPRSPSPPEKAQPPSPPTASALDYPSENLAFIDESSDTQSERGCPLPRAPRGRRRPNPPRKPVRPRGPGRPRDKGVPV
Nature of the test: Inhibition of human TRAAK expressed in HEK293 cells assessed as reduction in channel currents at 10 uM. The class given is cell-based.

Usually IC50 stands for the point on the concentration scale where inhibition reaches its midpoint. Regarding `COc1ccccc1OCCNCC(O)COc1cccc2[nH]c3ccccc3c12` (centres undefined) [CARVEDILOL], the IC50 in test [1] was determined as 7.6 µM; in test [2] it was 20.3 µM; in test [3] it was 24 µM; in test [4] it was 1.6 µM.

In general, inhibition refers to the share of the control response that was lost under treatment. `CCCC[C@@H]1OC(=O)c2ccccc21` [(3S)-BUTYLPHTHALIDE] had an inhibition in test [5] of 70%. In addition, the IC50 in test [6] was 0.06 µM.

With `CN1CCN(c2ncc(-c3cc(Cl)cc(Cl)c3Cl)c(N)n2)CC1` [SIPATRIGINE], the inhibition in [7] was found to be 75%; in test [9], 45%. In test [8], the IC50 was 4 µM.
